{
  "source": "patent US12593767B2",
  "about": "“Protoplast isolation and regeneration of plants” (The Regents of the University of California, priority 2019, dated 2026)",
  "key": {"TS protoplast": {"tested_on": "TS protoplast", "assay": "Polyamines: callus colony formation from encapsulated protoplasts in 1103P feeder suspension", "format": "cell-based, grape", "settings": "for # colonies/alginate bead: 14 days after encapsulation, beads 1-5; for # colonies/alginate bead, Average / # colonies, Total: 14 days; for # colonies, Total: total of 5 beads", "protocol": "We re-suspended embedded protoplasts in conditioned osmotically adjusted grape cell suspension cultures in 125 ml shake flasks and incubated them at 100 rpm and 25 degrees centigrade. In this system, we utilize a grape nurse suspension culture that is of a different genotype than the genotype used to generate the protoplasts. For example, we used 1103P conditioned cell suspension cultures for embedded Thompson Seedless protoplasts.\nRecently, we have replaced the use of the shake flasks with 60×15 mm petri plates. This format allows for easy observation of the protoplasts using an inverted microscope and aids sampling of beads to evaluate the fate of the embedded protoplasts. Beads are cultured in 3.5 ml of Lloyd and McCown minimal organics medium supplemented with 30 g/l sucrose, 10 mg/l Picloram and 2.0 mg/l TDZ, 0.4 M mannitol, 1,191 mg/l HEPES, 50 mM CaCl2, 5× antioxidant solution with 1.5 ml of conditioned 1103P cell suspension culture.\nWe are testing the ability of these polyamines to increase the plating efficiency of encapsulated protoplast as well as increase the rate of cell division. Initially we tested 1.0 mM putrescine in combination with 0.0 or 0.1 mM spermidine since we have previously found these levels to be beneficial in other plant species."}, "[1]": {"tested_on": "protoplast-derived somatic embryos", "assay": "Maintenance of embryo-containing beads on sorbitol-containing agar medium", "format": "cell-based, grape", "settings": "beads maintained on agar-solidified medium containing sorbitol (50 g/l)", "protocol": "Using forceps, we manually transferred individual beads to a 100×20 mm petri dish containing 40 ml of Lloyd and McCown minimal organics medium supplemented with 20 g/l sucrose, 1 g/l casein, 222 mg/l CaCl2, without hormones or activated charcoal. We repeated this transfer/washing process two more times to eliminate any of the feeder suspension cells. We then transferred beads onto agar-solidified 100×20 mm feeder plates containing 40 ml of Lloyd and McCown minimal organics medium supplemented with 20 g/l sucrose, 50 g/l sorbitol, 1 g/l casein, 1 mM MES, 0.5 mg/l BAP and 0.1 mg/l NAA onto which 1.0 ml of a […] grape suspension culture is plated. The grape suspension culture medium consisted of WPM medium supplemented with 20 g/l sucrose 10 mg/l picloram and 2.0 […] mannitol, 222 mg/l CaCl2, 1 g/l casein, 1,191 mg/l HEPES and 2 g/l activated charcoal, pH 5.7. We placed an 85 mm Whatman filter paper over the plated suspension and a 70 mm Whatman filter paper on top of the 85 mm filter. We placed beads on top of the 70 mm filter paper. We add 1 ml Lloyd and McCown minimal organics medium supplemented with 30 g/l sucrose, 1 g/l casein, 1 mM MES, 10 mg/l picloram and 2.0 mg/l TDZ to each plate to prevent desiccation. We incubated the cultures at 26 degrees centigrade in the dark. After approximately 3-4 weeks, mini-calli developed into somatic embryos within the beads (FIG. 15). […]"}, "Merlot protoplasts": {"tested_on": "Merlot protoplasts", "settings": "for Ave colonies per bead / Number of colonies, Total / Number of colonies per bead: + 1.0 mM PUT, 0.1 mM SPD; for Number of colonies, Total: total of 5 beads; for Number of colonies per bead: beads 1-5", "protocol": "I have developed and tested an antioxidant solution consisting of 100 mg/l ascorbic acid, 150 mg/l citric acid, 30 mg/l reduced glutathione and 100 mg/l L-cysteine (PTF AQ). I tested the effect of this antioxidant addendum on protoplast viability and division on Thompson seedless and Merlot protoplast culture. Protoplast were isolated and encapsulated in 1.6% calcium alginate beads. Calcium alginate beads from the same protoplast preparation were randomly transferred to shake flasks containing conditioned 0.4 M Pic/TDZ 1103P feeder cell suspensions with or without the addition of 1× or 5× of the antioxidant solutions. After 14 days, the osmotic strength of the feeder suspension was reduced from 0.4 M to 0.2 M mannitol. At day 35, I randomly harvested five beads per treatment and counted the number of mini calli per bead."}, "[2]": {"settings": "SPD 0.0 mM, CAD 0.1 mM, + 1.0 mM putrescine, 0.1 mM spermidine, Experiment 19136"}, "[3]": {"settings": "SPD 0.0 mM, CAD 1.0 mM, + 1.0 mM putrescine, 0.1 mM spermidine, Experiment 19136"}, "[4]": {"settings": "SPD 0.1 mM, CAD 0.0 mM, + 1.0 mM putrescine, 0.1 mM spermidine, Experiment 19136"}, "[5]": {"settings": "SPD 0.1 mM, SPM 0.0 mM, + 1 mM putrescine, Experiment 19129"}, "[6]": {"settings": "SPD 1.0 mM, CAD 0.0 mM, + 1.0 mM putrescine, 0.1 mM spermidine, Experiment 19136"}, "[7]": {"settings": "SPD 1.0 mM, SPM 0.0 mM, + 1 mM putrescine, Experiment 19129"}, "[8]": {"settings": "SPD 0.0 mM, SPM 0.1 mM, + 1 mM putrescine, Experiment 19129"}, "[9]": {"settings": "SPD 0.0 mM, SPM 1.0 mM, + 1 mM putrescine, Experiment 19129"}},
  "note": "Several values for one entry are separate records, joined by “and”; a condition that tells them apart may be missing. Identical values can stand only once. Like-named read-outs stand apart in the source and are kept apart here.",
  "data": [
    {"compound": "NCCCCCN", "note": "[cadaverine]", "values": [
      {"measurement": "# colonies/alginate bead", "setting": "TS protoplast; SPD 0.0 mM, CAD 0.1 mM, + 1.0 mM putrescine, 0.1 mM spermidine, Experiment 19136, listed as CAD", "result": "100 colonies/alginate bead and 115 colonies/alginate bead and 92 colonies/alginate bead and 104 colonies/alginate bead and 95 colonies/alginate bead"},
      {"measurement": "# colonies/alginate bead, Average", "setting": "TS protoplast; [2]", "result": 101.2, "unit": "colonies/alginate bead"},
      {"measurement": "# colonies, Total", "setting": "TS protoplast; [2]", "result": 506},
      {"measurement": "# colonies/alginate bead", "setting": "TS protoplast; SPD 0.0 mM, CAD 1.0 mM, + 1.0 mM putrescine, 0.1 mM spermidine, Experiment 19136, listed as CAD", "result": "104 colonies/alginate bead and 82 colonies/alginate bead and 87 colonies/alginate bead and 92 colonies/alginate bead and 73 colonies/alginate bead"},
      {"measurement": "# colonies/alginate bead, Average", "setting": "TS protoplast; [3]", "result": 87.6, "unit": "colonies/alginate bead"},
      {"measurement": "# colonies, Total", "setting": "TS protoplast; [3]", "result": 438},
      {"measurement": "cell division or cells growth from grape protoplasts", "setting": "TS protoplast; cadaverine 0.1 or 1.0 mM, + 1.0 mM putrescine, 0.1 mM spermidine, 0.0-1.0 mM spermine", "result": "does not seem to enhance cell division or cells growth"}
    ]},
    {"compound": "NCCCCN", "note": "[putrescine]", "values": [
      {"measurement": "callus colony formation", "setting": "TS protoplast; 1.0 mM putrescine", "result": "stimulated callus colony formation"}
    ]},
    {"compound": "OC[C@@H](O)[C@@H](O)[C@H](O)[C@@H](O)CO", "note": "[sorbitol]", "values": [
      {"measurement": "germination of embryos in beads", "setting": "[1]", "result": "will not germinate further and become dormant"}
    ]},
    {"compound": "NCCCCNCCCN", "note": "[spermidine]", "values": [
      {"measurement": "callus colony formation, addition to 1.0 mM putrescine", "setting": "TS protoplast; 0.1 mM spermidine", "result": "did not enhance the response"},
      {"measurement": "# colonies/alginate bead", "setting": "TS protoplast; SPD 0.1 mM, CAD 0.0 mM, + 1.0 mM putrescine, 0.1 mM spermidine, Experiment 19136, listed as SPD", "result": "68 colonies/alginate bead and 79 colonies/alginate bead and 64 colonies/alginate bead and 65 colonies/alginate bead and 86 colonies/alginate bead"},
      {"measurement": "# colonies/alginate bead, Average", "setting": "TS protoplast; [4]", "result": 72.4, "unit": "colonies/alginate bead"},
      {"measurement": "# colonies, Total", "setting": "TS protoplast; [4]", "result": 362},
      {"measurement": "# colonies/alginate bead", "setting": "TS protoplast; SPD 0.1 mM, SPM 0.0 mM, + 1 mM putrescine, Experiment 19129, listed as SPD", "result": "91 colonies/alginate bead and 93 colonies/alginate bead and 120 colonies/alginate bead and 110 colonies/alginate bead"},
      {"measurement": "# colonies/alginate bead, Average", "setting": "TS protoplast; [5]", "result": 101.4, "unit": "colonies/alginate bead"},
      {"measurement": "# colonies, Total", "setting": "TS protoplast; [5]", "result": 507},
      {"measurement": "# colonies/alginate bead", "setting": "TS protoplast; SPD 1.0 mM, CAD 0.0 mM, + 1.0 mM putrescine, 0.1 mM spermidine, Experiment 19136, listed as SPD", "result": "133 colonies/alginate bead and 121 colonies/alginate bead and 115 colonies/alginate bead and 98 colonies/alginate bead"},
      {"measurement": "# colonies/alginate bead, Average", "setting": "TS protoplast; [6]", "result": 120, "unit": "colonies/alginate bead"},
      {"measurement": "# colonies, Total", "setting": "TS protoplast; [6]", "result": 600},
      {"measurement": "# colonies/alginate bead", "setting": "TS protoplast; SPD 1.0 mM, SPM 0.0 mM, + 1 mM putrescine, Experiment 19129, listed as SPD", "result": "81 colonies/alginate bead and 97 colonies/alginate bead and 79 colonies/alginate bead and 125 colonies/alginate bead and 89 colonies/alginate bead"},
      {"measurement": "# colonies/alginate bead, Average", "setting": "TS protoplast; [7]", "result": 94.2, "unit": "colonies/alginate bead"},
      {"measurement": "# colonies, Total", "setting": "TS protoplast; [7]", "result": 471}
    ]},
    {"compound": "NCCCNCCCCNCCCN", "note": "[spermine]", "values": [
      {"measurement": "enhancement in growth", "setting": "TS protoplast; 0.1 mM spermine, + 1.0 mM putrescine", "result": "did not see any enhancement in growth"},
      {"measurement": "callus colony growth", "setting": "TS protoplast; 1.0 mM spermine, 21 days of culture, regardless of the level of CAD", "result": "significant enhancement in callus colony growth"},
      {"measurement": "number of protoplasts that divided and speed of protoplast derived callus formation", "setting": "TS protoplast; 1.0 mM spermine, + 1.0 mM putrescine, irrespective of the spermidine concentration", "result": "enhanced the number of protoplasts that divided and the speed of protoplast derived callus formation"},
      {"measurement": "# colonies/alginate bead", "setting": "TS protoplast; SPD 0.0 mM, SPM 0.1 mM, + 1 mM putrescine, Experiment 19129, listed as SPM", "result": "96 colonies/alginate bead and 81 colonies/alginate bead and 79 colonies/alginate bead and 59 colonies/alginate bead and 84 colonies/alginate bead"},
      {"measurement": "# colonies/alginate bead, Average", "setting": "TS protoplast; [8]", "result": 79.8, "unit": "colonies/alginate bead"},
      {"measurement": "# colonies, Total", "setting": "TS protoplast; [8]", "result": 399},
      {"measurement": "# colonies/alginate bead, Average", "setting": "TS protoplast; [9]", "result": 205.8, "unit": "colonies/alginate bead"},
      {"measurement": "# colonies, Total", "setting": "TS protoplast; [9]", "result": 1029},
      {"measurement": "number and speed of mini-callus formation", "setting": "TS protoplast; Thompson seedless derived protoplasts", "result": "significantly enhanced the number and speed of mini-callus formation"},
      {"measurement": "number and speed of mini-callus formation", "setting": "Merlot protoplasts; Merlot derived protoplasts", "result": "significantly enhanced the number and speed of mini-callus formation"},
      {"measurement": "Ave colonies per bead", "setting": "Merlot protoplasts; SPM 0.1 mM", "result": 0.2, "unit": "colonies per bead"},
      {"measurement": "Number of colonies, Total", "setting": "Merlot protoplasts; SPM 0.1 mM", "result": 1},
      {"measurement": "Ave colonies per bead", "setting": "Merlot protoplasts; SPM 0.25 mM", "result": 0, "unit": "colonies per bead"},
      {"measurement": "Number of colonies per bead", "setting": "Merlot protoplasts; SPM 0.25 mM", "result": 0, "unit": "colonies per bead"},
      {"measurement": "Number of colonies, Total", "setting": "Merlot protoplasts; SPM 0.25 mM", "result": 0},
      {"measurement": "Ave colonies per bead", "setting": "Merlot protoplasts; SPM 0.5 mM", "result": 0.2, "unit": "colonies per bead"},
      {"measurement": "Number of colonies, Total", "setting": "Merlot protoplasts; SPM 0.5 mM", "result": 1},
      {"measurement": "Ave colonies per bead", "setting": "Merlot protoplasts; SPM 0.75 mM", "result": 0, "unit": "colonies per bead"},
      {"measurement": "Number of colonies per bead", "setting": "Merlot protoplasts; SPM 0.75 mM", "result": 0, "unit": "colonies per bead"},
      {"measurement": "Number of colonies, Total", "setting": "Merlot protoplasts; SPM 0.75 mM", "result": 0},
      {"measurement": "Ave colonies per bead", "setting": "Merlot protoplasts; SPM 1.0 mM", "result": 6.2, "unit": "colonies per bead"},
      {"measurement": "Number of colonies, Total", "setting": "Merlot protoplasts; SPM 1.0 mM", "result": 31}
    ]}
  ]
}
